# Measured values reported in US11795218B2, “Diagnosis and therapy of cancer involving cancer stem cells” (BioNTech AG, priority 2014, dated 2023).
# Where a name gives a salt, the structure may show the parent alone.
# Experiments:
# [1] = tested on: human NEC14 xenograft tumors; experiment: Advanced NEC14 subcutaneous xenograft tumor model, IMAB027 with cisplatin or carboplatin; format: in vivo, mice; conditions: advanced s.c. NEC14 xenograft; cisplatin 1 mg/kg i.p. day 6-10; carboplatin 30 mg/kg i.p. day 6, 13, 20; IMAB027 35 mg/kg three times a week from day 6
# Method: Subcutaneous human NEC14 xenograft tumors were grown to a median size of ˜100 mm^3 before the beginning of the treatment. Mice were treated with 1 mg/kg cisplatin by i.p. injections daily from day 6 to 10 post engraftment and with three 35 mg/kg IMAB027 injections per week (alternating i.v./i.p./i.p.) starting on day 6 as maintenance therapy. […] The arrow marks the time point of therapy start. (B) Individual tumor size in mice at day 24 post graft (mean with ±standard diviation). (C) Survival curves of treated mice. Group size: n=19. P-values: *, p<0.05; **, p<0.01 and ***, p<0.001.
# Instead of cisplatin, mice were treated with 30 mg/kg carboplatin on days 6, 13 and 20 by bolus i.p. injections. […] The arrow marks the time point of therapy start. (B) Individual tumor size in mice at day 24 post graft (mean with ±standard diviation). (C) Survival curves of treated mice. Group size: n=19. P-values: *, p<0.05; **, p<0.01 and ***, p<0.001. […]
# For treatment of advanced human NEC14 xenograft tumors the human testicular germ cell tumor cell line NEC14 was cultivated according to the instructions of the supplier in RPMI 1640 medium GlutaMAX™ (Life Technologies) containing 10% FCS (Life Technologies) at 3TC in a humidified incubator with 5% CO2. […] Tumor burden were monitored twice a week. […] Inhibition of tumor growth was analyzed using the Kruskal-Wallis test and the post-hoc Dunn's multiple comparison test.
# COV362(Luc) cells = experiment: CLDN6 surface expression on COV362(Luc) cells after pretreatment with cytostatic agents (flow cytometry); format: cell-based, human; conditions: 4 days drug (5 ng/ml paclitaxel, 20 μg/ml carboplatin, 25 ng/ml gemcitabine, 20 ng/ml doxorubicin, 7.5 ng/ml topotecan), then 3 or 10 days without drug
# Method: ADCC activity of IMAB027 in combination with chemotherapy was analyzed using COV362(Luc) target cells. Therefore, cells were treated for 4 days with carboplatin, gemcitabine, paclitaxel, doxorubicin or topotecan at indicated concentrations. After treatment, cells were grown for 3 (A-D) and 10 days (E-J) in the absence of cytostatic drugs, respectively. Control cells were cultured without cytostatics. (A, C, E, G, I) ADCC experiments were performed with IMAB027 (black lines) or an isotype control antibody (grey lines) using PBMC from healthy donors at an effector (PBMC) to target cell ratio of ˜40:1. Data points (n=4 replicates) are depicted as mean±SD. (B, D, F, H, J) Expression of CLDN6 was analyzed by flow cytometry using IMAB027.
# The cells were washed twice and resuspended in FACS buffer. The binding was analysed by flow cytometry using a BD FACSArray (BD Biosciences) and FlowJo software (Tree Star Inc.). The live/dead dye propidium iodide (Sigma, P4864) was used to exclude dead cells from the analysis.
# The human ovarian carcinoma cell line COV362 stably transfected with luciferase as a reporter was used to determine the influence of carboplatin and paclitaxel on IMAB027-mediated ADCC. COV362(Luc) cells (3×10^6 cells per 150 mm cell culture dish) were grown under standard conditions. After 24 h, cells were treated with 5 ng/ml paclitaxel, 20 μg/ml carboplatin, 25 ng/ml gemcitabine, 20 ng/ml doxorubicin or 7.5 ng/ml topotecan and incubated for 4 days. The medium was changed and the treated cells were grown under standard growth conditions for further 3 days for carboplatin and gemcitabine or 10 days for paclitaxel, doxorubicin or topotecan.
# [2] = tested on: human ES-2(CLDN6) xenograft tumors; experiment: Early ES-2(CLDN6) subcutaneous xenograft tumor model, IMAB027 with paclitaxel; format: in vivo, mice; conditions: s.c. ES-2(CLDN6) xenograft; paclitaxel 15 mg/kg i.p. day 3, 10, 17; IMAB027 35 mg/kg three times a week from day 4; vs control group
# Method: Subcutaneous human ES-2 xenograft tumors ectopically expressing human CLDN6 were treated with 15 mg/kg paclitaxel on day 3, 10 and 17 post graft by i.p. injections. Antibody maintenance therapy started on day 4 with three 35 mg/kg IMAB027 injections per week (alternating i.v./i.p./i.p.).
# Hsd:Athymic Nude-Foxn1^nu mice were engrafted with human cancer cell lines. […] The control group received antibody buffer (vehicle control).
# Specifically, for treatment of human ES-2(CLDN6) xenograft tumors, the human ovarian carcinoma cell line ES-2 stably transfected with human CLDN6 was cultivated in Minimum Essential Media (Life Technologies) containing 1 x non-essential amino acids solution (Life Technologies), 700 μg/ml G418 (Life Technologies) and 10% FCS (Life Technologies) at 3TC in a humidified incubator with 5% CO2. For engraftment, 6 week-old female Hsd:Athymic Nude-Foxn1^nu mice were subcutaneously inoculated with 5×10^6 ES-2(CLDN6) cells in 200 μl PBS into the flank. On day 3 post subcutaneous tumor inoculation, mice were treated with either saline control, antibody or chemotherapeutic drug monotherapy and antibody/cytostatic drug combination therapy groups (n=12 per group). […] Tumor burden and animal health were monitored twice a week. […] Inhibition of tumor growth was analyzed using the Kruskal-Wallis test and the post-hoc Dunn's multiple comparison test.
smiles,measurement,setting,value
"N.N.[Cl][Pt][Cl] [cisplatin, cis-diamminedichloroplatinum(II)]",tumor growth / anti-tumoral efficacy,[1],highly significantly reduce tumor growth
COc1cccc2c1C(=O)c1c(O)c3c(c(O)c1C2=O)C[C@@](O)(C(=O)CO)C[C@@H]3O[C@H]1C[C@H](N)[C@H](O)[C@H](C)O1 [doxorubicin],protein levels of CLDN6 on the cell surface after pretreatment,COV362(Luc) cells,increased protein levels of CLDN6 on the cell surface
"Nc1ccn([C@@H]2O[C@H](CO)[C@@H](O)C2(F)F)c(=O)n1 [gemcitabine, 4-amino-1-(2-deoxy-2,2-difluoro-β-D-erythro-pentofuranosyl)pyrimidin-2 (1H)-one]",protein levels of CLDN6 on the cell surface after pretreatment,COV362(Luc) cells,increased protein levels of CLDN6 on the cell surface
"CC(=O)O[C@H]1C(=O)[C@@]2(C)[C@H]([C@H](OC(=O)c3ccccc3)[C@]3(O)C[C@H](OC(=O)[C@H](O)[C@@H](NC(=O)c4ccccc4)c4ccccc4)C(C)=C1C3(C)C)[C@]1(OC(C)=O)CO[C@@H]1C[C@@H]2O [paclitaxel, (2α,4α,5β,7β,10β,13α)-4,10-bis-(acetyloxy)-13-{[(2R,3S)-3-(benzoylamino)-2-hydroxy-3-phenylpropanoyl]oxy}-1,7-dihydroxy-9-oxo-5,20-epoxytax-11-en-2-yl benzoate]",protein levels of CLDN6 on the cell surface after pretreatment,COV362(Luc) cells,increased protein levels of CLDN6 on the cell surface
same,tumor growth / anti-tumoral activity,[2],does not show anti-tumoral activity
"CC[C@@]1(O)C(=O)OCc2c1cc1n(c2=O)Cc2cc3c(CN(C)C)c(O)ccc3nc2-1 [topotecan, (S)-10-[(dimethylamino)methyl]-4-ethyl-4,9-dihydroxy-1H-pyrano[3′,4′:6,7]indolizino[1,2-b]quinoline-3,14(4H,12H)-dione monohydrochloride]",protein levels of CLDN6 on the cell surface after pretreatment,COV362(Luc) cells,increased protein levels of CLDN6 on the cell surface
